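Method: 48-hour compound exposure of cells in 96-well plates, five concentrations, linear interpolation of endpoints. Here, GI50 denotes the concentration required for 50% inhibition of growth. The concentration for full growth arrest is given as TGI.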
What was measured:
Assay in all cases: NCI-60 cell line screen, 48 h
UACC-257 melanoma = tested on: UACC-257 melanoma
SN12C renal = tested on: SN12C renal
COLO 205 colon = tested on: COLO 205 colon
LOX IMVI melanoma = tested on: LOX IMVI melanoma
UACC-62 melanoma = tested on: UACC-62 melanoma
MDA-N = tested on: MDA-N
KM12 colon = tested on: KM12 colon
HCC-2998 colon = tested on: HCC-2998 colon
OVCAR-8 ovarian = tested on: OVCAR-8 ovarian
OVCAR-3 ovarian = tested on: OVCAR-3 ovarian

SMILES	TGI (UACC-257 melanoma) [µM]	GI50 (SN12C renal) [µM]	TGI (SN12C renal) [µM]	TGI (COLO 205 colon) [µM]	TGI (LOX IMVI melanoma) [µM]	GI50 (UACC-62 melanoma) [µM]	TGI (UACC-62 melanoma) [µM]	TGI (MDA-N) [µM]	TGI (KM12 colon) [µM]	TGI (HCC-2998 colon) [µM]	TGI (OVCAR-8 ovarian) [µM]	TGI (OVCAR-3 ovarian) [µM]	GI50 (UACC-257 melanoma) [µM]	GI50 (COLO 205 colon) [µM]	GI50 (LOX IMVI melanoma) [µM]	GI50 (KM12 colon) [µM]	GI50 (HCC-2998 colon) [µM]	GI50 (OVCAR-8 ovarian) [µM]	GI50 (OVCAR-3 ovarian) [µM]
CCCCCCNC(=O)c1cc(CCc2cc(O)ccc2O)ccc1O	6.26	2.18	5.77	41.6	19.3	3.26	10.1	9.54	39.6	9.68	17.6	5.94	–	–	–	–	–	–	–
C/C(=C\c1ccccc1)C(=O)NCc1ccc(C(=O)NCCC(C)C)cc1	> 100	–	> 100	> 100	> 100	–	> 100	> 100	> 100	> 100	> 100	> 100	–	–	–	–	–	–	–
CN(c1cc2ncc(=O)[nH]c2cc1NC(N)=NCc1ccc(Cl)cc1)C1CCCCC1	19.2	7.23	15.5	2.55	5.88	6.8	14	–	10.9	5.29	23.3	13.6	9.77	1.11	1.75	4.52	1.73	10.4	6.78
O=C(C=P(c1ccccc1)(c1ccccc1)c1ccccc1)c1cccc(-c2cccc([N+](=O)[O-])c2)c1	–	–	> 100	2.91	9.63	–	–	6.95	> 100	> 100	> 100	> 100	–	–	–	–	–	–	–
CSc1nc(NC2OCC(OC(C)=O)C(OC(C)=O)C2OC(C)=O)c(N=C(C)C(C)=O)c(=O)[nH]1 (stereo not drawn)	> 100	–	> 100	> 100	> 100	–	–	–	> 100	–	> 100	–	–	–	–	–	–	–	–
Cc1nc2c(n1C)C(=O)c1nc(CBr)[nH]c(=O)c1C2=O	–	–	> 100	> 100	> 100	–	> 100	–	–	–	> 100	–	–	–	–	–	–	–	–
COc1cc(/C=N/n2c(Cc3ccc(Cl)cc3)n[nH]c2=O)cc(OC)c1OC	> 100	–	> 100	> 100	–	–	> 100	> 100	> 100	> 100	> 100	> 100	–	–	–	–	–	–	–
N#CC(c1nc2ccccc2s1)c1ncnc(Cl)c1[N+](=O)[O-] (stereo not drawn)	41	–	41.9	29.8	33.1	–	–	37.5	> 100	–	34.7	47.8	–	–	–	–	–	–	–
COc1ccc(C2CC(c3cccc(Nc4ccncc4)c3)=NN2c2ccc(Cl)cc2)cc1 (stereo not drawn)	3.87	1.6	3.07	3.76	3.03	1.73	3.22	–	3.37	3.22	–	3.15	1.95	1.78	1.66	1.72	1.74	–	1.67
N/C(=N\S(=O)(=O)c1cccc2nsnc12)Nc1ccc(Cl)cc1	32.5	–	> 100	–	85.8	–	35.2	> 100	> 100	–	> 100	> 100	–	–	–	–	–	–	–
CC(C)(C)OC(=O)NCC(=O)NC1c2ccsc2/C(=N/O)[C@H]1O (stereo partly drawn)	> 100	–	> 100	> 100	> 100	–	> 100	> 100	–	> 100	> 100	> 100	–	–	–	–	–	–	–
N#Cc1c(NC(=S)Nc2ccc(Cl)cc2)sc2c1CCCC2	> 100	–	50.4	> 100	> 100	–	> 100	> 100	> 100	> 100	> 100	> 100	–	–	–	–	–	–	–
COCO[C@@H]1C[C@H]2C(=O)N(COC)c3ccccc3C(=O)N2C1	> 100	–	> 100	> 100	> 100	–	> 100	> 100	> 100	–	> 100	–	–	–	–	–	–	–	–
O=C1N(c2ccccc2)C2(c3ccccc3)CC3CCCC13S2 (stereo not drawn)	51.1	–	> 100	> 100	> 100	–	> 100	–	> 100	–	> 100	> 100	–	–	–	–	–	–	–
C=CCc1cc(-c2cc(CC=C)c(O)c(CNC)c2)cc(CNC)c1O	29.9	–	31.3	33.5	27.2	–	31.9	–	30.2	30	32.5	27.9	–	–	–	–	–	–	–
CC(=O)Oc1c(C)c2c(O)c3c1C1=C(OCOC1=C(C)C3=O)/C(C)=C\C(C)(O)C(O)C(C)C(O)C1C(=O)OC(C(C)C1O)C(C)(O)/C=C/C=C(C)C(=O)N2 (stereo not drawn)	> 100	–	> 100	> 100	> 100	–	> 100	> 100	> 100	> 100	> 100	> 100	–	–	–	–	–	–	–
COC(=O)c1cc2c3c(cc(N(C)C)c2[nH]1)N(C(=O)c1cc2cc(OC)c(OC)c(OC)c2[nH]1)CC3CCl (stereo not drawn)	–	–	0.384	0.0131	–	–	0.0565	< 0.0025	0.0118	0.0144	–	0.0136	–	–	–	–	–	–	–
COc1ccc2c(c1)CCN=C2Cc1cc(OC)c(OC)cc1CCCl	> 100	–	> 100	> 100	> 100	–	> 100	> 100	> 100	> 100	> 100	> 100	–	–	–	–	–	–	–
C#CCn1ncc2c(SC)ncnc21	> 100	–	> 100	> 100	> 100	–	> 100	> 100	> 100	> 100	> 100	> 100	–	–	–	–	–	–	–
O=S1(=O)C(c2ccccc2)C(N2CCCCC2)C1C1CC2c3ccccc3C1c1ccccc12 (stereo not drawn)	> 100	–	> 100	> 100	> 100	–	> 100	> 100	> 100	–	> 100	> 100	–	–	–	–	–	–	–
OC1(c2ccc(Cl)cc2)c2c(ccc3c2OCO3)C2=NCCN21 (stereo not drawn)	37.2	–	> 100	33	> 100	–	37	87.4	43.9	–	> 100	> 100	–	–	–	–	–	–	–

SMILES	TGI (UACC-257 melanoma) [µM]	GI50 (SN12C renal) [µM]	TGI (SN12C renal) [µM]	TGI (COLO 205 colon) [µM]	TGI (LOX IMVI melanoma) [µM]	GI50 (UACC-62 melanoma) [µM]	TGI (UACC-62 melanoma) [µM]	TGI (MDA-N) [µM]	TGI (KM12 colon) [µM]	TGI (HCC-2998 colon) [µM]	TGI (OVCAR-8 ovarian) [µM]	TGI (OVCAR-3 ovarian) [µM]	GI50 (UACC-257 melanoma) [µM]	GI50 (COLO 205 colon) [µM]	GI50 (LOX IMVI melanoma) [µM]	GI50 (KM12 colon) [µM]	GI50 (HCC-2998 colon) [µM]	GI50 (OVCAR-8 ovarian) [µM]	GI50 (OVCAR-3 ovarian) [µM]
COc1cc(/C=C2/SC(c3ccccc3)N(c3cccc(Cl)c3)C2=O)cc(OC)c1OC (stereo not drawn)	> 100	–	37.2	> 100	35.1	–	> 100	43.2	> 100	> 100	59.6	> 100	–	–	–	–	–	–	–
O=C1CS(=O)(=O)C(c2cccc(Oc3ccccc3)c2)N1c1cccc(Cl)c1 (stereo not drawn)	46.4	–	> 100	41.1	32.1	–	29.4	49.2	> 100	15.7	82.8	95.1	–	–	–	–	–	–	–
O=c1cc(-c2ccc(O)cc2)n(C2CC2)c2ccccc12	25.8	–	32.3	15.1	16.7	–	14.8	26.2	16.2	–	47.1	16.8	–	–	–	–	–	–	–
CCCCCCCCCCCCCCCc1ccc(OCC(O)CO)cc1 (stereo not drawn)	> 100	–	33.2	59.3	32.1	–	48	–	31.7	49.9	72.7	49.3	–	–	–	–	–	–	–
Nc1cc2c(nnn2C2OC(COCc3ccccc3)C(OCc3ccccc3)C2OCc2ccccc2)c(=O)[nH]1 (stereo not drawn)	58.6	–	40.3	20.3	53.2	–	38.1	34	54.6	–	> 100	> 100	–	–	–	–	–	–	–
N#Cc1c2c(c(Nc3cccc(C(F)(F)F)c3)n3c1nc1ccccc13)CCC2	> 100	–	> 100	> 100	> 100	–	–	–	> 100	–	> 100	> 100	–	–	–	–	–	–	–
CS(=O)(=O)OC1CN2CCC1CC2 (stereo not drawn)	> 100	–	> 100	> 100	> 100	–	> 100	> 100	> 100	–	> 100	> 100	–	–	–	–	–	–	–
Cc1ccc(NP(=O)(Oc2ccccc2)N(CCCl)CCCl)cc1 (stereo not drawn)	> 100	–	> 100	> 100	–	–	> 100	–	> 100	> 100	> 100	> 100	–	–	–	–	–	–	–
Cc1cc2c(cc1Cl)SC(c1ccccc1)C(=O)NS2(=O)=O (stereo not drawn)	88.5	–	–	–	> 100	–	–	> 100	> 100	70.8	> 100	53.4	–	–	–	–	–	–	–
N#CC(c1ccnc(Cl)n1)c1nc2ccccc2s1 (stereo not drawn)	41.2	–	10.1	24.6	> 33.9	–	15.8	12.9	> 45.9	46.8	> 41.2	26.2	–	–	–	–	–	–	–
CC(=O)c1c(SCCN2CCCC2)n(-c2ccccc2)c(=S)n(-c2ccccc2)c1=O	9.17	–	20.5	3.48	9.04	–	20	19.9	> 55.7	11.9	23.5	7.22	–	–	–	–	–	–	–
CCN(CC)CCCC(C)Nc1ccnc2cc3ccccc3cc12 (stereo not drawn)	46.1	–	> 100	11.7	> 100	–	49.1	–	33.8	–	54.2	> 100	–	–	–	–	–	–	–
Cc1cccc2cc3c(ccc4ccccc43)c[n+]12	37.9	–	20.3	31.6	> 100	–	63.1	> 100	32	42.7	> 100	16.9	–	–	–	–	–	–	–
Nc1ccc(-c2cssc2=S)cc1	> 100	–	94.6	> 100	> 100	–	94.9	> 100	> 100	> 100	> 100	–	–	–	–	–	–	–	–
Cn1c(-c2cccs2)cc(-c2ccccc2)c1-c1cccs1	> 100	–	> 100	> 100	> 100	–	> 100	> 100	> 100	> 100	> 100	47.6	–	–	–	–	–	–	–
CC(=O)Nc1ccc(N=C2C(c3ccccc3)=C(SC3=C(c4ccccc4)C(=Nc4ccc(NC(C)=O)cc4)c4ccccc43)c3ccccc32)cc1	> 100	–	> 100	> 100	> 100	–	–	> 100	89.5	> 100	> 100	> 100	–	–	–	–	–	–	–
CN(C)c1nc(N(C)C)nc(N(C)CN(C)c2ccc(Cl)cc2)n1	> 100	–	> 100	–	> 100	–	> 100	–	> 100	–	> 100	> 100	–	–	–	–	–	–	–
CO/C=C(/C(=O)OC)c1ccccc1[C@@H]1CC1c1cccc(F)c1 (stereo partly drawn)	52.4	–	98.4	30.3	–	–	50.2	91.2	83.9	94.8	> 100	> 100	–	–	–	–	–	–	–
O=C(N/N=C(/COc1ccc(Cl)cc1)N=Cc1cccnc1)c1ccncc1	> 100	–	> 100	> 100	> 100	–	> 100	65.8	> 100	> 100	> 100	> 100	–	–	–	–	–	–	–
CCN1C=C/C(=C\C=C/c2cc[n+](CC)c3ccccc23)c2ccccc21	9.76	–	12.3	17	–	–	23.8	19.3	12.4	19	17.1	6.81	–	–	–	–	–	–	–

Reference: PubChem BioAssay (NCI)
